One block for each molecule: values may come before it.
Molecular target: T1, hSFRP-1 (Homo sapiens, UniProt Q8N474)
T1 construct: expressed in transfected cells; host or cells: U2OS osteosarcoma cells (ATCC, HTB 96), transient co-transfection with Wnt 3, Wnt3A or Wnt 1, 16x TCF-tk-Luciferase reporter and CMV-beta-gal
T1 sequence (Q8N474 32-314): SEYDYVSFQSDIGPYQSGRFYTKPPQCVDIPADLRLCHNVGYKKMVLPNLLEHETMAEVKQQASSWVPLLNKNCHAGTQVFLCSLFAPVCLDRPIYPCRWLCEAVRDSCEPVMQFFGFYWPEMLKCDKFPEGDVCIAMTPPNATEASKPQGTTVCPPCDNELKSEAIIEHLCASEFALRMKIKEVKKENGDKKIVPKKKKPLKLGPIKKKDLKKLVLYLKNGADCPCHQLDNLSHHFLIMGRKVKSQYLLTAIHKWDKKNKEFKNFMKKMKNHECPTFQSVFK
Assay: Cell-Based Assay for In Vitro Measurement of SFRP-1/SARP2 Antagonist Activity (U2OS cells, 16x TCF-tk-Luciferase reporter, Wnt + hSFRP-1 co-transfection)
Conditions: initial single dose screening at 10 μM; for fold induction at 10 µM: luciferase reporter activity, fold induction over SFRP-1 control; for Ratio: ratio not defined
Procedure: Cell-Based Assay for In Vitro Measurement of SFRP-1/SARP2 Antagonist Activity
The following cell-based assay can be used to identify inhibitors of SFRP-1.
The osteosarcoma cell line, U2OS (ATCC, HTB 96), was passaged twice a week with growth medium (McCoy's SA medium containing 10% (v/v) fetal calf serum, 2 mM GlutaMAX-1, and 1% (v/v) Penicillin-Streptomycin). The cells were maintained in vented flasks at 37° C. inside a 5% CO2/95% humidified air incubator. One day prior to transfection, the cells were plated with growth medium at 25,000 cells/well into 96-well plates and incubated at 37° C. overnight.
The growth medium was removed, and the cells were washed once with OPTIMEM I (Gibco-BRL) medium (100 μl/well) to remove the serum and antibiotics. The wash medium was removed, and the cells were re-fed with OPTI-MEM I medium (100 μl/well). For each well of cells to be transfected, the following DNA's were diluted together in 25 μl OPTI-MEM I medium: 0.1 μg 16× TCF-tk-Luciferase reporter, 0.02 μg Wnt 3, Wnt3A, Wnt 1 or empty vector (Upstate Biotechnology), 0.075 μg hSFRP-1 or empty vector (pcDNA3.1, Invitrogen), and 0.025 μg CMV-®gal (Clonetech). For each well of cells to be transfected, 1 μl of Lipofectamine 2000 reagent (Invitrogen) was diluted in 25 μl OPTI-MEM I medium and incubated at room temperature for 5 minutes. The diluted DNA's were then combined with the diluted Lipofectamine 2000 (LF2000), and the mixture was incubated at room temperature for 20 minutes. Fifty μl of the DNA-LF 2000 mixture was added to each well, and the plate(s) were incubated at 37° C. in a 5% CO2/95% humidified air incubator for 4 hours. The cells were washed once with 150 μl/well of experimental medium (phenol red-free RPMI Medium 1640 containing 2% fetal bovine serum, 2 mM GlutaMAX-1, and 1% Penicillin-Streptomycin). Finally, the cells were treated overnight at 37° C. with 200 μl/well of experimental medium containing either vehicle (typically DMSO) or diluted compound in replicates of 8 wells/compound.
Initial single dose screening of test compounds was done at 10 μM.
Dose-response experiments were initially performed with the compounds in log increases from 1-10,000 nM. From these dose-response curves, EC50 values were generated.
After treatment, the cells were washed twice with 150 μl/well of PBS without calcium or magnesium and were lysed with 50 μl/well of 1× cell culture lysis reagent (Promega Corporation) on a shaker at room temperature for 30 minutes. Thirty μl aliquots of the cell lysates were transferred to 96-well luminometer plates, and luciferase activity was measured in a MicroLumat PLUS luminometer (EG&G Berthold), or a Victor (PerkinElmer Life Sciences) using […] of luciferase substrate (Promega Corporation). Following the injection of substrate, luciferase activity was measured for 10 seconds after a 1.6 second delay. Similarly, 10 μl aliquots of the cell lysates were transferred to separate 96-well luminometer plates, and 50 μl of Galacton chemiluminescent substrate (Tropix) was added to each well. The plates were covered and incubated on a rotary shaker at room temperature for one hour. ®gal activity was measured in a MicroLumat PLUS luminometer or Victor using 100 μl/well of Light Emission Accelerator (Tropix). Following the injection of the accelerator, ®gal activity was measured for 10 seconds after a 1.6 second delay. The luciferase and ®gal activity data were transferred from the luminometer to a PC and analyzed using the SAS/Excel program. After the luciferase activity was normalized to ®gal, the SAS/Excel program was used to determine the mean and standard deviation of each treatment, to analyze the data for statistical significance, and to determine EC50 values.
As an alternative to co-transfection in a 96 well plate, the U2OS cells were transfected in T225 flasks and the transfected cells were frozen. The frozen cells were thawed and plated on a 96 well plate and the assay was carried out as detailed above. […]

- fold induction at 10 µM: 1.9
- Ratio: 1.7
SMILES: N=C1NC(=O)C(CC(=O)Nc2ccc(F)c(Cl)c2)S1 (centres unmarked) [Example 11, N-(3-chloro-4-fluorophenyl)-2-(2-imino-4-oxo-1,3-thiazolidin-5-yl)acetamide]

- fold induction at 10 µM: 1.1
- Ratio: 1.0
SMILES: N=C1NC(=O)C(CC(=O)NCc2ccc(C(F)(F)F)cc2)S1 (centres unmarked) [Example 12, 2-(2-imino-4-oxo-1,3-thiazolidin-5-yl)-N-[4-(trifluoromethyl)benzyl]acetamide]

- fold induction at 10 µM: 1
- Ratio: 1.0
SMILES: Cc1cc(NC(=O)CC2SC(=N)NC2=O)on1 (centres unmarked) [Example 13, 2-(2-imino-4-oxo-1,3-thiazolidin-5-yl)-N-(3-methylisoxazol-5-yl)acetamide]

- fold induction at 10 µM: 1.8
- Ratio: 1.6
SMILES: C#Cc1cccc(NC(=O)CC2SC(=N)NC2=O)c1 (centres unmarked) [Example 14, N-(3-ethynylphenyl)-2-(2-imino-4-oxo-1,3-thiazolidin-5-yl)acetamide]

- fold induction at 10 µM: 1.5
- Ratio: 1.2
SMILES: CSc1cccc(NC(=O)CC2SC(=N)NC2=O)c1 (centres unmarked) [Example 15, 2-(2-imino-4-oxo-1,3-thiazolidin-5-yl)-N-[3-(methylthio)phenyl]acetamide]

- fold induction at 10 µM: 2
- Ratio: 1.9
SMILES: CCOC(=O)c1c(C)csc1NC(=O)CC1SC(=N)NC1=O (centres unmarked) [Example 16, ethyl 2-{[(2-imino-4-oxo-1,3-thiazolidin-5-yl)acetyl]amino}-4-methylthiophene-3-carboxylate]

Continued, molecule first:

SMILES: CCOC(=O)c1c(NC(=O)CC2SC(N)=NC2=O)sc(C)c1C (centres unmarked) [Example 1, Ethyl 2-{[(2-amino-4-oxo-4,5-dihydro-1,3-thiazol-5-yl)acetyl]amino}-4,5-dimethylthiophene-3-carboxylate]
- fold induction at 10 µM: 2.5
- Ratio: 2.5

SMILES: N=C1NC(=O)C(CC(=O)Nc2cccc(Br)c2)S1 (centres unmarked) [Example 2, N-(3-bromophenyl)-2-(2-imino-4-oxo-1,3-thiazolidin-5-yl)acetamide]
- fold induction at 10 µM: 2
- Ratio: 1.8

SMILES: N=C1NC(=O)C(CC(=O)Nc2cccc(F)c2)S1 (centres unmarked) [Example 3, N-(3-fluorophenyl)-2-(2-imino-4-oxo-1,3-thiazolidin-5-yl)acetamide]
- fold induction at 10 µM: 1.5
- Ratio: 1.3

SMILES: N#Cc1cccc(NC(=O)CC2SC(=N)NC2=O)c1 (centres unmarked) [Example 4, N-(3-cyanophenyl)-2-(2-imino-4-oxo-1,3-thiazolidin-5-yl)acetamide]
- fold induction at 10 µM: 1.3
- Ratio: 1.2

SMILES: CC(=O)Nc1cccc(NC(=O)CC2SC(=N)NC2=O)c1 (centres unmarked) [Example 5, N-[3-(acetylamino)phenyl]-2-(2-imino-4-oxo-1,3-thiazolidin-5-yl)acetamide]
- fold induction at 10 µM: 1.3
- Ratio: 1.2

SMILES: N=C1NC(=O)C(CC(=O)Nc2ccc(Cl)c(Cl)c2)S1 (centres unmarked) [Example 6, N-(3,4-dichlorophenyl)-2-(2-imino-4-oxo-1,3-thiazolidin-5-yl)acetamide]
- fold induction at 10 µM: 1.7
- Ratio: 1.7

SMILES: N=C1NC(=O)C(CC(=O)Nc2ccc(Cl)cc2Cl)S1 (centres unmarked) [Example 7, N-(2,4-dichlorophenyl)-2-(2-imino-4-oxo-1,3-thiazolidin-5-yl)acetamide]
- fold induction at 10 µM: 1
- Ratio: 1.0

SMILES: N=C1NC(=O)C(CC(=O)Nc2cccc(F)c2F)S1 (centres unmarked) [Example 8, N-(2,3-difluorophenyl)-2-(2-imino-4-oxo-1,3-thiazolidin-5-yl)acetamide]
- fold induction at 10 µM: 1.1
- Ratio: 1.0

SMILES: N=C1NC(=O)C(CC(=O)Nc2ccc(F)c(F)c2)S1 (centres unmarked) [Example 9, N-(3,4-difluorophenyl)-2-(2-imino-4-oxo-1,3-thiazolidin-5-yl)acetamide]
- fold induction at 10 µM: 1.6
- Ratio: 1.5

SMILES: N=C1NC(=O)C(CC(=O)Nc2cccc(Cl)c2)S1 (centres unmarked) [Example 10, N-(3-chlorophenyl)-2-(2-imino-4-oxo-1,3-thiazolidin-5-yl)acetamide]
- fold induction at 10 µM: 2.2
- Ratio: 2.2

From patent US7563813B2, “Iminothiazolidinone derivatives as SFRP-1 antagonists” (Wyeth, priority 2005, dated 2009)
